Legend:
[1] = molecular target: Human immunodeficiency virus type 1 reverse transcriptase (Human immunodeficiency virus 1, UniProt Q72547); experiment: Inhibition of RNA dependent DNA polymerase activity of HIV1 recombinant reverse transcriptase
[2] = test system: Human immunodeficiency virus 1; experiment: Antiviral activity against HIV1 assessed as reduction of virus-induced cytopathic effect in MT4 cells; format: functional, organism-based; details: Human immunodeficiency virus 1, MT4
[3] = Cytotoxicity against MT4 cells assessed as reduction of cell viability; format: cell-based; details: human
[4] = Selectivity index, ratio of CC50 for human MT4 cells to EC50 for HIV1; format: functional
[5] = test system: Human immunodeficiency virus 1; experiment: Antiviral activity against HIV1 3B in CEM cells assessed as inhibition of virus-induced giant cell formation; format: functional, organism-based; details: Human immunodeficiency virus 1, 3B, CCRF-CEM
[6] = test system: Human immunodeficiency virus 1; experiment: Antiviral activity against HIV1 with reverse transcriptase L100I mutation in CEM cells assessed as inhibition of virus-induced giant cell formation; format: functional, organism-based; details: Human immunodeficiency virus 1, CCRF-CEM
[7] = test system: Human immunodeficiency virus 1; experiment: Antiviral activity against HIV1 with reverse transcriptase K103N mutation in CEM cells assessed as inhibition of virus-induced giant cell formation; format: functional, organism-based; details: Human immunodeficiency virus 1, CCRF-CEM
[8] = test system: Human immunodeficiency virus 1; experiment: Antiviral activity against HIV1 with reverse transcriptase E138K mutation in CEM cells assessed as inhibition of virus-induced giant cell formation; format: functional, organism-based; details: Human immunodeficiency virus 1, CCRF-CEM
[9] = test system: Human immunodeficiency virus 1; experiment: Antiviral activity against HIV1 with reverse transcriptase Y181C mutation in CEM cells assessed as inhibition of virus-induced giant cell formation; format: functional, organism-based; details: Human immunodeficiency virus 1, CCRF-CEM
[10] = test system: Human immunodeficiency virus 1; experiment: Antiviral activity against HIV1 with reverse transcriptase Y188H mutation in CEM cells assessed as inhibition of virus-induced giant cell formation; format: functional, organism-based; details: Human immunodeficiency virus 1, CCRF-CEM

## Cc1cc(C)cc(S(=O)(=O)n2c(=O)[nH]c3ccc(Cl)cc32)c1
[1]
  IC50: 5 nM
[2]
  EC50: 2 nM
[3]
  CC50: 39000 nM
[4]
  Ratio CC50/EC50: 17846
[5]
  EC50: 3 nM
[6]
  EC50: 6 nM
[7]
  EC50: 29 nM
[8]
  EC50: 15 nM
[9]
  EC50: 160 nM
[10]
  EC50: 1500 nM

## Cc1ccnc2c1NC(=O)c1cccnc1N2C1CC1 [NEVIRAPINE]
[2]
  EC50: 73 nM
[3]
  CC50: > 15000 nM
[5]
  EC50: 30 nM
[6]
  EC50: 199 nM
[7]
  EC50: 1300 nM
[8]
  EC50: 207 nM
[9]
  EC50: 2500 nM
[10]
  EC50: > 75000 nM

## Cc1cc(C)cc(Cn2c(=O)[nH]c3ccc(Cl)cc32)c1
[1]
  IC50: 150 nM
[2]
  EC50: 32 nM
[3]
  CC50: 8900 nM
[4]
  Ratio CC50/EC50: 281
[5]
  EC50: 81 nM
[6]
  EC50: 49 nM
[7]
  EC50: ≥ 3000 nM
[8]
  EC50: 665 nM
[9]
  EC50: > 3000 nM
[10]
  EC50: > 3000 nM

## O=c1[nH]c2ccc(Cl)cc2n1Cc1c(F)cccc1F
[1]
  IC50: 700 nM
[2]
  EC50: 240 nM
[3]
  CC50: > 424000 nM
[4]
  Ratio CC50/EC50: >1766
[5]
  EC50: 374 nM
[6]
  EC50: 3100 nM
[7]
  EC50: > 50000 nM
[8]
  EC50: 2500 nM
[9]
  EC50: > 50000 nM
[10]
  EC50: > 50000 nM

## O=C1Nc2ccc(Cl)cc2[C@@](C#CC2CC2)(C(F)(F)F)O1 [EFAVIRENZ]
[3]
  CC50: > 6000 nM
[7]
  EC50: 218 nM
[8]
  EC50: 9.6 nM
[9]
  EC50: 6.1 nM
[10]
  EC50: 49 nM

Source: ChEMBL document CHEMBL1148858, “Discovery of novel benzimidazolones as potent non-nucleoside reverse transcriptase inhibitors active against wild-type and mutant HIV-1 strains” (Bioorg Med Chem Lett, 2007)
